US4299839A, “Novel pesticides and pesticidal compositions cyclopropanecarboxylates and pesticidal method” (priority 1979, dated 1981)

Tested on: green rice leafhoppers
Experiment: Utility Example 1: emulsifiable concentrate sprayed over rice seedlings, green rice leafhopper mortality
Assay type: in vivo
Settings: 30% emulsifiable concentrate diluted 300-fold, 100 ml/pot, 24 hours; cis/trans 50/50
Description: To 30 parts of each of Compounds (1) to (38) were added 50 parts of xylene and 20 parts of Sorpol SM-200 (a surfactant, trademark of Toho Chemical Co., Ltd.). The mixture was stirred well and dissolved to obtain a 30% emulsifiable concentrate.
The emulsifiable concentrate prepared from Compounds (7), (11), (12), (15), (17), (21) and (22) [Each compound is a mixture of cis- and trans-isomer in a ratio 50/50] in Formulation Example 5 were each diluted 300-fold with water. Then, each of the dilutions was sprayed over rice seedlings 25 days after sowing at the rate of 100 ml/pot. The pot was covered with a wire net and 15 green rice leafhoppers were released under the net. After 24 hours, the leafhoppers were examined for deaths. The mortality (%) was not less than 90% for each of Compounds (7), (11), (12), (15), (17), (21) and (22).

SMILES	Mortality (%)
CC1(C)C(CC(Cl)(Cl)Cl)C1C(=O)OC(C#N)c1cccc(Oc2ccc(Br)cc2)c1 (stereo not drawn) [(17), 3-(4-Bromophenoxy)-α-cyanobenzyl 2,2-dimethyl-3-(2,2,2-trichloroethyl)cyclopropanecarboxylate]	not less than 90%
C#CC(OC(=O)C1C(CC(Cl)(Cl)Cl)C1(C)C)c1cccc(Oc2ccc(Br)cc2)c1 (stereo not drawn) [(22), 3-(4-Bromophenoxy)-α-ethynylbenzyl 2,2-dimethyl-3-(2,2,2-trichloroethyl)cyclopropanecarboxylate]	not less than 90%
